Consider 40 molecules from article PMC10726440, “N-Biphenyl Pyrrolinones and Dibenzofurans as RNA-Binding Protein LIN28 Inhibitors Disrupting the LIN28–Let-7 Interaction” (ACS Medicinal Chemistry Letters, 2023).

The target in the assay is T1, LIN28A(16–187)–let-7 interaction (Homo sapiens, UniProt Q9H9Z2).
T1 construct: LIN28A(16–187) or LIN28B(24–111); pET19a or pMAL vector) (cleaved yes); made in house; host or cells: Escherichia coli BL21(DE3)
T1 sequence (Q9H9Z2 16-187): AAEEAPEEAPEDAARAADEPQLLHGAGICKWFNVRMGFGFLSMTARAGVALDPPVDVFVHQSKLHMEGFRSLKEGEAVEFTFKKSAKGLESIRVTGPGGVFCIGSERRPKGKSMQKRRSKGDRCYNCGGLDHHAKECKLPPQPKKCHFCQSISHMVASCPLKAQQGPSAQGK
Kind of assay: Electrophoretic mobility shift assay (EMSA), disruption of LIN28–let-7 complex. The settings on record: for IC50: concentration-dependent EMSA, some values estimated, read-out: IC50 in dose–response EMSA; for inhibition at 75 µM: read-out: inhibition of the LIN28–let-7 interaction measured in EMSA. It counts as binding. As for the experimental part: Inhibition of the LIN28–let-7 complex was evaluated by electrophoretic mobility shift assays. Mixtures containing compound at indicated concentrations, LIN28A(16–187) or LIN28B(24–111), and recombinant ribonuclease inhibitor (TaKaRa Bio) were incubated at room temperature for 2 h. The reaction buffer contained 50 mM TRIS, pH 7.5, 100 mM NaCl, 10 mM β-mercaptoethanol, 50 μM ZnCl2, 2% DMSO, 0.01% Tween-20 and 12% glycerol. Cy-3-fluorophore labeled RNA, (pre-E let-7f-1-Cy3, Mus musculus, […]-Cy3, purchased from IDT) was added to the reaction and incubated for further 15 min. The final concentrations were as follows: 10 nM LIN28A or 200 nM LIN28B, 5 nM RNA. Of each mixture, 10 μL was analyzed on a nondenaturing PAGE (5.3% acrylamide TAE PAGE for full-length LIN28 and 10% acrylamide TAE PAGE for analysis of the CSD) prerun for 1 h without sample and run for 1 h at 220 V at 4 °C in 0.25× TAE buffer. Gels were imaged using a ChemiDoc MP instrument (Bio-Rad Laboratories). Band intensities were analyzed using ImageJ and inhibition was quantified by calculation of the ratio of free RNA fluorescence to the fluorescence of the protein–RNA complex, and normalization to free RNA and LIN28–let-7 complex controls. The intensity ratio was analyzed by nonlinear regression fit in GraphPad Prism to determine the IC50 values.

The mark [1] stands for this setting: single concentration of 75 μM, 75 µM.

“And” between values parts separate entries of the source, which are not always exact repeats. Identical values can stand only once. Like-named read-outs stand apart in the source and are kept apart here. A value given as a limit tells only on which side of the number the result lay.

Turning to `O=C(C1=C(O)C(=O)N(c2ccc(O)c(C(=O)O)c2)C1c1ccc([N+](=O)[O-])cc1)c1ccccn1` (stereo not shown) [Compound 4], the half-maximal inhibitory concentration (IC50) is 19 µM and ~19 µM.
With `O=C(C1=C(O)C(=O)N(c2ccc3oc4ccccc4c3c2)C1c1ccc([N+](=O)[O-])cc1)c1ccc(Br)cc1` (stereo not shown) [Compound 41], the inhibition at 75 µM (single concentration of 75 μM) came out at 53%.
Regarding `O=C(C1=C(O)C(=O)N(c2cccc(-c3ccccc3)c2)C1c1ccc([N+](=O)[O-])cc1)C1CCC1` (stereo not shown) [Compound 26], the inhibition at 75 µM (single concentration of 75 μM) was 8%.
`O=C(O)c1cc(N2C(=O)c3nn(Cc4ccccc4)c(-c4ccccc4)c3C2c2ccc([N+](=O)[O-])cc2)ccc1O` (stereo not shown) [Compound 14]: for the setting “single concentration of 75 μM”, the “inhibition of the LIN28–let-7 interaction measured in EMSA” value (shortened to “inhibition … in EMSA”) is “inactive”.
Consider `O=C(C1=C(O)C(=O)N(c2ccc3oc4ccccc4c3c2)C1c1ccc([N+](=O)[O-])cc1)c1ccc(F)cc1` (stereo not shown) [Compound 43], for which the inhibition at 75 µM (single concentration of 75 μM) came to 60%.
In the case of `O=C(C1=C(O)C(=O)N(c2ccc(O)c(C(=O)O)c2)C1c1ccc2[nH]nnc2c1)c1ccccc1` (stereo not shown) [Compound 6], the half-inhibitory concentration (IC50) was 20 µM and ~20 µM. For the setting “single concentration of 75 μM”, the inhibition at 75 µM came out at 95.4%.
On to `O=C(O)c1cc(N2C(=O)C(O)=C(c3nccs3)C2c2ccc([N+](=O)[O-])cc2)ccc1O` (stereo not shown) [Compound 5], for which the IC50 was 32 µM. Where the note is “single concentration of 75 μM”, the “inhibition … in EMSA” value is on record as “active” and the inhibition at 75 µM was not below 60%.
`O=C(C1=C(O)C(=O)N(c2cccc([N+](=O)[O-])c2)[C@H]1c1ccc([N+](=O)[O-])cc1)c1ccccc1` [Compound 20]: the “inhibition … in EMSA” value (single concentration of 75 μM) is “none of these aforementioned enantiomerically pure molecules were active”.
For `O=C(C1=C(O)C(=O)N(c2cccc(-c3ccccc3)c2)C1c1ccc([N+](=O)[O-])cc1)c1ccc(F)cc1` (stereo not shown) [Compound 32], the inhibition at 75 µM (single concentration of 75 μM) is 76%.
`O=C(C1=C(O)C(=O)N(c2ccc(O)c(C(=O)O)c2)C1c1ccc2cnccc2c1)c1ccccc1` (stereo not shown) [Compound 9]: the IC50 was < 15 µM and ~5 µM. For the same molecule, under “single concentration of 75 μM”, the inhibition at 75 µM was 99.9%.
As to `N=C1CC=CC=C1C1=C(N)C(=O)N(c2ccc(O)c(C(=O)O)c2)[C@@H]1c1ccc([N+](=O)[O-])cc1` [Compound 23], the “inhibition … in EMSA” value (single concentration of 75 μM) is “inactive” and the “inhibition … in EMSA” value under setting [1] is recorded as “none of these aforementioned enantiomerically pure molecules were active”.
On to `Cc1ccc(C(=O)C2=C(O)C(=O)N(c3ccc(O)c(C(=O)O)c3)C2c2ccc([N+](=O)[O-])cc2)cc1` (stereo not shown) [Compound 3], for which the IC50 is 33 µM. The inhibition at 75 µM (single concentration of 75 μM) was not below 60%.
As for `O=C(O)c1cc(N2C(=O)C(O)=C(Cc3ccccc3)[C@H]2c2ccc([N+](=O)[O-])cc2)ccc1O` [Compound 19], the “inhibition … in EMSA” value (single concentration of 75 μM) is given as “none of these aforementioned enantiomerically pure molecules were active”.
As to `O=C(C1=C(O)C(=O)N(c2cccc(-c3ccccc3)c2)C1c1ccc([N+](=O)[O-])cc1)C1CCCCC1` (stereo not shown) [Compound 24], the inhibition at 75 µM (single concentration of 75 μM) was 49%.
Turning to `COc1ccc(CN/C(=C2\C(=O)C(=O)N(c3ccc(O)c(C(=O)O)c3)C2c2ccc([N+](=O)[O-])cc2)c2ccccc2)cc1` (stereo not shown) [Compound 13], the IC50 was 26 µM. Besides, for the setting “single concentration of 75 μM”, the “inhibition … in EMSA” value was “active” and the inhibition at 75 µM stood at 102%.
Regarding `Cc1ccc(C(=O)C2=C(O)C(=O)N(c3cccc(-c4ccccc4)c3)C2c2ccc([N+](=O)[O-])cc2)o1` (stereo not shown) [Compound 36], the inhibition at 75 µM (single concentration of 75 μM) came to 83%.
`O=C(C1=C(O)C(=O)N(c2cccc([N+](=O)[O-])c2)[C@@H]1c1ccc([N+](=O)[O-])cc1)c1ccccc1` [Compound 21]: for the setting “single concentration of 75 μM”, the “inhibition … in EMSA” value is listed as “none of these aforementioned enantiomerically pure molecules were active”.
Regarding `O=C(C1=C(O)C(=O)N(c2ccc(O)c(C(=O)O)c2)[C@@H]1c1ccc([N+](=O)[O-])cc1)c1ccc(Cl)cc1` [Compound 16], for the setting “single concentration of 75 μM”, the “inhibition … in EMSA” value was “none of these aforementioned enantiomerically pure molecules were active”.
With `O=C(C1=C(O)C(=O)N(CCCc2ccccc2)C1c1ccc([N+](=O)[O-])cc1)c1ccccc1` (stereo not shown) [Compound 12], the IC50 is < 15 µM and 5 to 15 µM. The “inhibition … in EMSA” value under setting [1] is on record as 77%. Moreover, the inhibition at 75 µM (single concentration of 75 μM) was found to be 76.5%.
In the case of `O=C(O)c1cc(N2C(=O)c3c(c(-c4ccccc4)nn3Cc3ccccc3)C2c2ccc([N+](=O)[O-])cc2)ccc1O` (stereo not shown) [Compound 15], the “inhibition … in EMSA” value (single concentration of 75 μM) is “inactive”.
Turning to `O=C(C1=C(O)C(=O)N(c2cccc(-c3ccccc3)c2)C1c1ccc([N+](=O)[O-])cc1)c1ccc(C(F)(F)F)cc1` (stereo not shown) [Compound 39], the inhibition at 75 µM (single concentration of 75 μM) was determined as 40%.
Consider `O=C(C1=C(O)C(=O)N(c2ccc(O)c(C(=O)O)c2)C1c1ccc2cn[nH]c2c1)c1ccccc1` (stereo not shown) [Compound 7], for which the half-inhibitory concentration (IC50) is 34 µM. For the same molecule, the inhibition at 75 µM (single concentration of 75 μM) was 70.7%.
For the molecule `O=C(O)c1cc(N2C(=O)C(O)=C(Cc3ccccc3)[C@@H]2c2ccc([N+](=O)[O-])cc2)ccc1O` [Compound 18], the “inhibition … in EMSA” value (single concentration of 75 μM) is given as “none of these aforementioned enantiomerically pure molecules were active”.
For the molecule `O=C(C1=C(O)C(=O)N(c2cccc(-c3ccccc3)c2)C1c1ccc([N+](=O)[O-])cc1)c1ccco1` (stereo not shown) [Compound 35], the IC50 was approximately 45 µM. Moreover, the inhibition at 75 µM (single concentration of 75 μM) came out at 87%.
Take `O=C(C1=C(O)C(=O)N(c2ccc(O)c(C(=O)O)c2)C1c1ccc([N+](=O)[O-])cc1)c1ccccc1` (stereo not shown) [Compound 2]: the “inhibition … in EMSA” value (single concentration of 75 μM) is given as “not active”.
In the case of `COc1ccc(C(=O)C2=C(O)C(=O)N(c3ccc4oc5ccccc5c4c3)C2c2ccc([N+](=O)[O-])cc2)cc1` (stereo not shown) [Compound 42], the inhibition at 75 µM (single concentration of 75 μM) stood at 74%.
Turning to `O=C(C1=C(O)C(=O)N(c2ccc3oc4ccccc4c3c2)C1c1ccc([N+](=O)[O-])cc1)c1ccco1` (stereo not shown) [Compound 44], the inhibition at 75 µM (single concentration of 75 μM) was 90%.
Regarding `O=C(C1=C(O)C(=O)N(c2cccc(-c3ccccc3)c2)C1c1ccc([N+](=O)[O-])cc1)c1ccc(Br)cc1` (stereo not shown) [Compound 30], the inhibition at 75 µM (single concentration of 75 μM) was determined as 73%.
In the case of `O=C(C1=C(O)C(=O)N(c2ccc(O)c(C(=O)O)c2)[C@H]1c1ccc([N+](=O)[O-])cc1)c1ccc(Cl)cc1` [Compound 17], the “inhibition … in EMSA” value (single concentration of 75 μM) is “none of these aforementioned enantiomerically pure molecules were active”.
For `O=C(C1=C(O)C(=O)N(c2cccc(-c3ccccc3)c2)C1c1ccc([N+](=O)[O-])cc1)c1nccs1` (stereo not shown) [Compound 38], the inhibition at 75 µM (single concentration of 75 μM) was 8%.
On to `Nc1ccc(C2C(C(=O)c3ccccc3)=C(O)C(=O)N2c2ccc(O)c(C(=O)O)c2)cc1` (stereo not shown) [Compound 10], for which the IC50 was < 15 µM and 5 to 15 µM. Moreover, the inhibition at 75 µM (single concentration of 75 μM) turned out to be 84.1%.
For the molecule `O=C(C1=C(O)C(=O)N(c2ccc3c(c2)oc2ccccc23)C1c1ccc([N+](=O)[O-])cc1)c1ccco1` (stereo not shown) [Compound 49], the “inhibition of LIN28–let-7 complex formation in concentration-dependent EMSA (in words)” value (dose–response EMSA) is listed as “best inhibitory activities among the evaluated molecules”. Further, the inhibition at 75 µM (single concentration of 75 μM) is 95%.
Turning to `O=C(C1=C(O)C(=O)N(c2cccc(-c3ccccc3)c2)C1c1ccc([N+](=O)[O-])cc1)c1ccc([N+](=O)[O-])c(O)c1` (stereo not shown) [Compound 34], the inhibition at 75 µM was 49%.
`COc1ccc(C(=O)C2=C(O)C(=O)N(c3ccc4c(c3)oc3ccccc34)C2c2ccc([N+](=O)[O-])cc2)cc1` (stereo not shown) [Compound 47]: the inhibition at 75 µM (single concentration of 75 μM) was 87%.
Consider `O=C(C1=C(O)C(=O)N(c2ccc3oc4ccccc4c3c2)C1c1ccc([N+](=O)[O-])cc1)c1ccccc1` (stereo not shown) [Compound 40], for which, where the note is “single concentration of 75 μM”, the inhibition at 75 µM was found to be 94%.
`Cn1cccc1C(=O)C1=C(O)C(=O)N(c2cccc(-c3ccccc3)c2)C1c1ccc([N+](=O)[O-])cc1` (stereo not shown) [Compound 37]: under “single concentration of 75 μM”, the inhibition at 75 µM was 75%.
`NC1=C(C(=O)c2ccccc2)[C@@H](c2ccc([N+](=O)[O-])cc2)N(c2ccc(O)c(C(=O)O)c2)C1=O` [Compound 22]: the “inhibition … in EMSA” value runs as follows: (single concentration of 75 μM) “inactive”; under setting [1], “none of these aforementioned enantiomerically pure molecules were active”.
For `O=C(C1=C(O)C(=O)N(c2ccc3c(c2)oc2ccccc23)C1c1ccc([N+](=O)[O-])cc1)c1ccc(Br)cc1` (stereo not shown) [Compound 46], where the note is “single concentration of 75 μM”, the inhibition at 75 µM was 86%.
With `COc1ccc(C(=O)C2=C(O)C(=O)N(c3cccc(-c4ccccc4)c3)C2c2ccc([N+](=O)[O-])cc2)cc1` (stereo not shown) [Compound 31], the inhibition at 75 µM (single concentration of 75 μM) turned out to be 87%.
Same read-out and setting: then `O=C(C1=C(O)C(=O)N(c2ccc3c(c2)oc2ccccc23)C1c1ccc([N+](=O)[O-])cc1)c1ccc(F)cc1` (stereo not shown) [Compound 48], with 93%.
